Data set [1] concerns aMCI subjects. As to the kind of experiment: Benton Visual Retention Test. The note with it: levetiracetam 125 mg twice a day for two weeks. The class given is in vivo, human. The source says:
(§1) Breaks are provided to the subject as needed.

For data set [2], the system named is aMCI subjects. The data set is described as follows: Verbal Paired Associates Test - Recognition. The note with it: levetiracetam 125 mg twice a day for two weeks. The class given is in vivo, human.
Source text: as §1

For data set [3] the following is noted: cited from earlier work.
Data set [4] concerns somatostatin in DG hilus. The data set is described as follows: anti-SOM immunohistochemistry, hilar interneuron counts after chronic levetiracetam. The class given is in vivo, rat. The note with it: levetiracetam 10 mg/kg/day, osmotic minipumps, four weeks, aged-impaired rats. The method, then:
Under isoflurane anesthesia, memory-impaired aged rats were implanted subcutaneously in the intrascapular region with osmotic mini-pumps (ALZET, Durect Corporation, Cupertino, Calif.) with levetiracetam (10 mg/kg/day) or saline vehicle for four weeks prior to perfusion. Young rats, which served as controls, received either saline vehicle in mini-pumps or no implantation.
At the end of the 4-week treatment period, rats were anesthetized with isoflurane and perfused transcardiacally with 0.1 M phosphate buffer saline, followed by 4% paraformaldehyde in phosphate buffer. Brains were removed and post-fixed in paraformaldehyde overnight. […]
Tissue was labeled with anti-SOM antiserum (Santa Cruz Biotechnology; cat. no. SC7819-P) using an established immunoperoxidase protocol and tissue sections were processed concurrently to minimize inter-replication variability (Haberman et al., 2009). […] The secondary antibody was detected with avidin-biotin complex (ABC Elite; Vector Laboratories Inc., Burlingame, Calif.) and the avidin-biotin complex was visualized with nickel-enhanced diaminobenzadine (Vector Laboratories Inc., Burlingame, Calif.). […]
Interneuron quantification was performed using a Zeiss Axioplan 2 microscope equipped with a motorized stage. […] Neuron counts were analyzed as the total number of hilar interneurons per hippocampal section for each rat.

Data set [5] concerns aMCI subjects. As to the kind of experiment: explicit 3-alternative forced choice task. The data set is classed as in vivo, human. An excerpt: See Folstein et al., J Psychiatric Res 12: 189-98, (1975); Robbins et al., Dementia 5: 266-81, (1994); Rey, L′examen clinique en psychologie, (1964); Kluger et al., J Geriatr Psychiatry Neurol 12:168-79, (1999); Marquis et al., 2002 and Masur et al., 1994. Also see Buchanan, R. W., Keefe, R. S. E., Umbricht, D., Green, M. F., Laughren, T., and Marder, S. R. (2011) The FDA-NIMH-MATRICS guidelines for clinical trial design of cognitive-enhancing drugs: what do we know 5 years later? Schizophr. Bull. 37, 1209-1217. Another example of a cognitive test in humans is the explicit 3-alternative forced choice task. In this test, subjects are presented with color photographs of common objects consisting of a mix of three types of image pairs: similar pairs, identical pairs and unrelated foils. The second of the pair of similar objects is referred to as the “lure”. These image pairs are fully randomized and presented individually as a series of images. Subjects are instructed to make a judgment as to whether the objects seen are new, old or similar. A “similar” response to the presentation of a lure stimulus indicates successful memory retrieval by the subject.
The activity of the subject's medial temporal lobe is measured by functional MRI during the subject's participation in an explicit 3-alternative forced choice task, where participants view novel, repeated and similar (“lure”) stimuli. The Psychophysics Toolbox extensions in Matlab 7.0 (The MathWorks, Natick, Mass.) is used for stimulus presentation and behavioral data collection. Stimuli are color photographs of common objects. Each participant undergoes a series of testing runs during the functional imaging sessions, each run consisting of a mix of three types of image pairs: similar pairs, identical pairs and unrelated foils. These image pairs are fully randomized throughout the run and presented individually as a series of images (see FIG. 10A). Participants are instructed to make a judgment as to whether each object seen is new, old or similar. […]

Like-named read-outs stand apart in the source and are kept apart here.

As for `CC[C@@H](C(N)=O)N1CCCC1=O` [levetiracetam, (2S)-2-(2-oxopyrrolidin-1-yl)butanamide], in data set [1], the “performance in Benton Visual Retention Test” value is “fail to rescue performance”. Also, the “performance in Verbal Paired Associates Test—Recognition” value in data set [2] is on record as “fail to rescue performance”. The Plasma half-life is 9 to 10 h in data set [3] (expected in elderly due to decreased renal function) and “approximately 7±1 hour” in data set [3] (oral administration). In data set [3] (following oral administration), the “time of peak plasma concentrations” value was “about 1 hour”. Besides, in data set [3] (multiple twice-daily dosing), the “time to steady state” value is listed as 2 days. Also, in data set [3] (oral administration), the “absorption after oral administration” value was “rapidly and almost completely absorbed”. Further, in data set [3] (oral administration), the “effect of food on bioavailability” value is “not affected by food”. For the same compound, the “levels of somatostatin in DG hilus (SOM-immunoreactive hilar neurons)” value in data set [4] was “restores”. The “performance in the explicit 3-alternative forced choice task” value in data set [5] (levetiracetam 62.5 mg BID for two weeks) is “improves significantly”; in data set [5] (levetiracetam 125 mg twice a day for two weeks vs placebo), “improves significantly”; in data set [5] (levetiracetam 250 mg BID for two weeks) it was “does not significantly improve”.
